Experimental data reported in patent publication US7192922B2, “Method of treating left ventricular dysfunction” (Allegheny-Singer Research Institute, priority 2002, dated 2007).
Where two headings read alike, the source gives them in different places.

Legend:
[1] = tested on: normal dogs and dogs with advanced dilated cardiomyopathy; experiment: Acute graded infusion, hemodynamic effects in conscious chronically instrumented dogs; assay type: in vivo, dog; conditions: for effects on left ventricular pressure, left ventricular dP/dt, cardiac output, heart rate: graded infusions for ten minutes, six normal dogs and six dogs with advanced DCM
Excerpt: FIGS. 2a–2d show the dose response to rGLP-1 in normal conscious dogs and conscious dogs with advanced DCM compared to the response to the sympathomimetic, dobutamine.
FIG. 1 illustrates characteristic instrumentation of conscious, chronically instrumented dogs studied in the laboratory. Under sterile surgical technique, the animals are instrumented as indicated and allowed to recover fully from their surgery. At the time, they are taught to lie quietly on the experimental table before study. To determine if acute GLP-1 (7–36 amide) infusion is associated with hemodynamic effects in conscious chronically instrumented dogs, graded infusions for ten minutes at doses of 1.25, 2.5, 5, 10 and 20 pmol/kg/min in six normal dogs and in six dogs with advanced dilated cardiomyopathy were studied. The response of the graded infusion to the classic iontopic agent, Dobutamine, (2.5, 5, 7.5, 10 and 15 μ/kg/min.) was compared. […] Nikolaidis, L A, Hentosz, T, Doverspike, A, et al., “Catecholamine stimulation is associated with impaired myocardial O2 utilization in heart failure,” Cardiovas. Res., 2002;53:392–404, incorporated by reference herein.

[2] = tested on: myocardial substrate uptake; experiment: Myocardial substrate uptake and metabolic parameters in dogs with advanced DCM, 48 h infusion (Table 1); assay type: in vivo, dog; conditions: for Glucose myocardial uptake / Lactate myocardial uptake / NE (transmyocardial norepinephrine uptake) / NEFA myocardial uptake: GLP-1 group (n = 9); for Insulin/Glucagon: ratio insulin (pmol/L) to glucagon (pg/ml), GLP-1 group
Procedure: (§1) A 48 hour continuous intravenous infusion of GLP-1 (7–36 amide), (1.5 pmol/kg/min) in five normal dogs to determine the hemodynamic effect of chronic infusion in the absence of dilated cardiomyopathy was conducted. […] FIGS. 3–5 illustrates the effects of GLP-1 (7–36 amide) infusion (1.5 pmol/kg/min) intravenously for 48 hours in 20 conscious, chronically instrumented animals with advanced heart failure. These effects have been compared to similarly instrumented animals with advanced heart failure that received a control saline infusion of equal volume ([…]) illustrate the hemodynamic effects of chronic GLP-1 infusion in advanced DCM. GLP-1 (7–36 amide) infusion was associated with a restoration of left ventricular pressure, improvement in contractility, improvement in cardiac output, and reduction in heart rate and LVEDP. […] GLP-1 was associated with restoration of endothelial dependent vaso dilatation response to acetylcholine (FIG. 7). […] GLP-1 had little effect on increased plasma insulin levels in the setting of euglycemia.

[3] = tested on: endothelial dependent coronary vasodilation; experiment: Coronary flow responses to acetylcholine and nitroglycerin in conscious dogs with advanced DCM after 48-hour infusion; assay type: in vivo, dog
Procedure: FIGS. 7a and 7b show the effects of rGLP-1 on endothelial dependent coronary vasodilation in conscious dogs. Advanced DCM was associated with impaired coronary flow responses to acetylcholine. These responses were restored following 48-hour infusion of rGLP-1. The response to the non-endothelial dependent vasodilator, nitroglycerin was unaffected.
as §1

[4] = tested on: patients with large myocardial infarction (LVEF<35%); experiment: 72 hour continuous intravenous infusion in adults with severe acute myocardial infarction, LV function; assay type: in vivo, human; conditions: 1.5 pmol/kg/min i.v. 72 hours after percutaneous coronary intervention; ten adults vs eleven on standard care
Procedure: The effects of continuous intravenous infusion of GLP-1 (1.5 pmol/kg/min) intravenously for 72 hours was studied in ten adults presenting with severe acute myocardial infarction. These were compared to eleven adults with similar large myocardial infarction (LVEF<35%) all of whom underwent percutaneous coronary intervention and subsequently were treated for 72 hours thereafter.

plasma insulin = conditions: cited from earlier work; for plasma insulin levels: GIP 2.0, GLP-1 1.5 pmol·kg−1·min−1
[5] = tested on: conscious dogs with advanced DCM; experiment: 48 hour intravenous infusion, hemodynamics and myocardial sympathetic activity in conscious dogs with advanced heart failure (DCM); assay type: in vivo, dog
Excerpt: FIGS. 3a–3d show the effects of r GLP-1 on LV systolic pressure, LV end diastolic pressure, LV dP/dt, and heart rate in conscious dogs with advanced DCM compared to saline control.
FIGS. 4a–4d show the effects of rGLP-1 on cardiac output, stroke volume, LV ejection fraction, systemic vascular resistance in conscious dogs with advanced DCM compared to saline control.
FIGS. 5a and 5b show the effects of rGLP-1 on stroke work and LV external efficiency in conscious dogs with advanced DCM compared to saline control.
FIGS. 6a and 6b show the effects of rGLP-1 on transmyocardial norepinephrine uptake as a reflection of sympathetic drive to the myocardium in conscious dogs with advanced DCM compared to saline controls.
as §1

normal dogs = experiment: 48 hour continuous intravenous infusion, hemodynamic effect in normal dogs; assay type: in vivo, dog; conditions: 1.5 pmol/kg/min i.v. 48 hours; five normal dogs
Procedure: as §1

restrained rats = conditions: rat, in vivo, sc; cited from earlier work
[6] = Baseline (before CHF and infusion)
[7] = advanced DCM, vs saline controls
[8] = hyperglycemia 10.4 mmol/l, hyperglycemia alone ~280 pmol/l
[9] = hyperglycemia 187 mg/dl, hyperglycemia alone 47 μU/ml
[10] = 1.5 pmol/kg/min i.v. 48 hours, vs saline

CC(CCc1ccc(O)cc1)NCCc1ccc(O)c(O)c1 (centres unmarked) [Dobutamine]
hemodynamic effects of graded infusion, heart failure ([1]; dogs with heart failure (advanced DCM), graded infusion): de-sensitized effects
hemodynamic effects of graded infusion, normal dogs ([1]; normal dogs, graded infusion): predictable effects

GLP-1 (7–36 amide)
Glucose myocardial uptake ([2]; 24 hrs of infusion): 8.72 ± 1.05 µmol/min
Lactate myocardial uptake ([2]; 24 hrs of infusion): 3.61 ± 0.62 µmol/min
NE (transmyocardial norepinephrine uptake) ([2]; 24 hrs of infusion): 26.3 ± 3.1 pmol/min
NEFA myocardial uptake ([2]; 24 hrs of infusion): 4.53 ± 0.58 µmol/min
Glucose myocardial uptake ([2]; 48 hrs of infusion): 7.00 ± 0.94 µmol/min
Lactate myocardial uptake ([2]; 48 hrs of infusion): 4.04 ± 0.74 µmol/min
NE (transmyocardial norepinephrine uptake) ([2]; 48 hrs of infusion): 30.5 ± 4.9 pmol/min
NEFA myocardial uptake ([2]; 48 hrs of infusion): 5.16 ± 0.73 µmol/min
Glucose myocardial uptake [2, 6]: 6.67 ± 1.22 µmol/min
Lactate myocardial uptake [2, 6]: 4.78 ± 1.04 µmol/min
NE (transmyocardial norepinephrine uptake) [2, 6]: 30.9 ± 4.8 pmol/min
NEFA myocardial uptake [2, 6]: 5.23 ± 0.83 µmol/min
Glucose myocardial uptake ([2]; CHF (before infusion)): 3.44 ± 0.81 µmol/min
Lactate myocardial uptake ([2]; CHF (before infusion)): 2.64 ± 0.91 µmol/min
NE (transmyocardial norepinephrine uptake) ([2]; CHF (before infusion)): 18.7 ± 3.6 pmol/min
NEFA myocardial uptake ([2]; CHF (before infusion)): 3.17 ± 0.61 µmol/min
myocardial glucose uptake [2, 7]: enhanced
ratio of insulin (pmol/L) to glucagon (pg/ml) [2, 7]: significant increase
Insulin/Glucagon ([2]; 48 hrs of infusion): 3.12 ± 0.24
Insulin/Glucagon [2, 6]: 1.36 ± 0.21
Insulin/Glucagon ([2]; CHF (before infusion)): 1.79 ± 0.29
plasma insulin levels ([2]; setting of euglycemia, advanced DCM): little effect
endothelial dependent vasodilatation (coronary flow) response to acetylcholine [3]: restoration
response to the non-endothelial dependent vasodilator nitroglycerin [3]: unaffected
endothelial dependent vasodilatation (coronary flow) response to acetylcholine ([3]; listed as rGLP-1): restored
left ventricular function [4]: improvement
plasma insulin levels (plasma insulin; [8]): ~2000 pmol/L
plasma insulin levels (plasma insulin; [9]): 333 μU/ml
relative potency as incretin (plasma insulin; hyperglycemia, infusion): more potent than GIP
effects on left ventricular pressure, left ventricular dP/dt, cardiac output, heart rate [1]: no significant, dose related effects
effects on left ventricular pressure, left ventricular dP/dt, cardiac output, heart rate ([1]; listed as rGLP-1): no acute hemodynamic effects
LVEDP [5, 10]: reduction
cardiac output [5, 10]: improvement
contractility [5, 10]: improvement
heart rate [5, 10]: reduction
left ventricular pressure [5, 10]: restoration
myocardial sympathetic activity ([5]; infusion compared to saline): suppression
hemodynamic effects of chronic infusion (normal dogs): no significant hemodynamic effects

exendin-4 [excendin 4]
blood pressure and heart rate (restrained rats): hypertension and tachycardia

glucose-dependent insulinotropic polypeptide [GIP]
plasma insulin levels (plasma insulin; [8]): ~900 pmol/L
plasma insulin levels (plasma insulin; [9]): 150 μU/ml
insulinotropic action during euglycemia (plasma insulin; normal subjects, euglycemia): not
